Reference: the Kinase Knowledgebase extract (Sharma et al. 2016)

The molecules below were run against CDK2 (human) (UniProt P24941) (assay: Enzyme Assay).
With CCc1c(NC2CCCNC2)nc2ccnn2c1Nc1ccc(Br)cc1 (stereo not given) the IC50 was less than 100 µM.
Work on CCc1c(N[C@H]2CC[C@H](N)CC2)nc2ccnn2c1Nc1ccc(OC)cc1 yielded an IC50 of less than 100 µM.
Molecule Cc1c(N[C@H]2CC[C@H](N)CC2)nc2ccnn2c1Nc1ccc(-c2ccccc2)cc1 has an IC50 of less than 100 µM.
Cc1c(N[C@H]2CC[C@H](N)CC2)nc2ccnn2c1Nc1ccc(-c2ccc(O)cc2)cc1 gave an IC50 of less than 100 µM.
Molecule Cc1c(N[C@H]2CC[C@H](N)CC2)nc2ccnn2c1Nc1ccc(OCCC2CCCCN2)cc1 (stereo not given in full) has an IC50 of less than 100 µM.
For Cc1c(N[C@H]2CC[C@H](N)CC2)nc2ccnn2c1Nc1ccc(OCCN2CCOCC2)cc1, the IC50 was less than 100 µM.
Molecule Cc1ccc(COc2cccc(Nc3c(C)c(N[C@H]4CC[C@H](N)CC4)nc4ccnn34)c2)cc1 has an IC50 of less than 100 µM.
Cc1c(N[C@H]2CC[C@H](N)CC2)nc2ccnn2c1Nc1ccc(OCC2CCCN(C)C2)cc1 (stereo not given in full) was tested, and the IC50 was less than 100 µM.
In the case of Cc1c(N[C@H]2CC[C@H](N)CC2)nc2ccnn2c1Nc1cccc(I)c1, the IC50 is reported as less than 100 µM.
Cc1c(N[C@H]2CC[C@H](N)CC2)nc2ccnn2c1Nc1ccc(-c2cn[nH]c2)cc1 was tested, and the IC50 was less than 100 µM.
Cc1c(N[C@H]2CC[C@H](N)CC2)nc2ccnn2c1Nc1ccc(OCCC2CCCCC2)cc1 was tested, and the IC50 was less than 100 µM.
Work on CCc1c(N[C@H]2CC[C@H](N)CC2)nc2ccnn2c1Nc1cccc(Cl)c1 yielded an IC50 of less than 100 µM.
Molecule CCOc1ccc(Nc2c(C)c(NC3CCCNC3)nc3c(C4CCCCC4)cnn23)cc1 (stereo not given) has an IC50 of less than 100 µM.
Molecule Cc1c(N[C@H]2CC[C@H](N)CC2)nc2ccnn2c1Nc1ccc2ncsc2c1 has an IC50 of less than 100 µM.
Molecule CCOc1ccc(-c2ccc(Nc3c(C)c(N[C@H]4CC[C@H](N)CC4)nc4ccnn34)cc2)cc1 has an IC50 of less than 100 µM.
